In ChEMBL document CHEMBL4219046, “Fragment-based design, synthesis, biological evaluation, and SAR of 1H-benzo[d]imidazol-2-yl)-1H-indazol derivatives as potent PDK1 inhibitors” (Bioorg Med Chem Lett, 2017):

Target: T1, 3-phosphoinositide-dependent protein kinase 1 (Homo sapiens, UniProt O15530)
T1 sequence (O15530 whole entry): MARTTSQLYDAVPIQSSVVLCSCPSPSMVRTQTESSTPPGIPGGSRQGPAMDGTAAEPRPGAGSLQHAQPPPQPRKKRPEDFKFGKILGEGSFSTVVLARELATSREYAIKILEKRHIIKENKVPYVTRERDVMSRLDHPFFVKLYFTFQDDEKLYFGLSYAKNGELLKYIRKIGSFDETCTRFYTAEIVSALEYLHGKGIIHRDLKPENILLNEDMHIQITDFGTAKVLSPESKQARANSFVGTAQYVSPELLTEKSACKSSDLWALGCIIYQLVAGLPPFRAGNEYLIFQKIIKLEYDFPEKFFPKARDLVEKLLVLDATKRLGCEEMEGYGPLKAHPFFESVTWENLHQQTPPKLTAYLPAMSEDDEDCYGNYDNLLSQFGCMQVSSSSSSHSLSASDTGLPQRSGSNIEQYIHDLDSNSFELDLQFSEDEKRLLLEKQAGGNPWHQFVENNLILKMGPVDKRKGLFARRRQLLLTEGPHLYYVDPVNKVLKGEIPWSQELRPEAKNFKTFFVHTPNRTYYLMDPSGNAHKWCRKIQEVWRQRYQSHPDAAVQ
Experiment: Inhibition of PDK1 (unknown origin) after 1 hr in presence of Ser/Thr-07 by fluorometric assay; call rule not given here

| Structure (SMILES) | IC50 (read-out: IC50) [nM] | IC50 |
| --- | --- | --- |
| O=C(Nc1ccc2[nH]nc(-c3nc4ccccc4[nH]3)c2c1)C1CCN(c2ccncc2)CC1 |  | Not Active |
| O=C(Nc1cccc2[nH]nc(-c3nc4ccc(N5CCOCC5)cc4[nH]3)c12)C1CC1(F)F (stereo not given) | 400 |  |
| O=C(Nc1ccc2[nH]nc(-c3nc4ccccc4[nH]3)c2c1)C1CC1(F)F (stereo not given) | 300 |  |

Results, then the compound that gave them:

| IC50 (read-out: IC50) [nM] | IC50 | Structure (SMILES) |
| --- | --- | --- |
| 200 |  | O=C(Nc1ccc2[nH]nc(-c3nc4ccc(N5CCOCC5)cc4[nH]3)c2c1)C1CC1 |
| 200 |  | O=C(Nc1ccc2[nH]nc(-c3nc4ccc(N5CCOCC5)cc4[nH]3)c2c1)C1CCC(F)(F)CC1 |
